Assay results taken from PMC10914731, “Homo-BacPROTAC-induced degradation of ClpC1 as a strategy against drug-resistant mycobacteria” (Nature Communications, 2024).
≈ marks a conversion by molar mass, not a printed value. Where “and” joins values, the source holds several entries; their conditions need not be identical. Identical values can stand only once. Like-named read-outs stand apart in the source and are kept apart here.

How the values were obtained:
[1] = system: non-replicating cells of Mtb H37Rv; assay type: cell-based, Mycobacterium tuberculosis; details: three replicate columns
Mtb ATCC 35825 = experiment: microbe, parasite or virus in culture; assay type: cell-based
[2] = system: Mycobacterium intracellulare; experiment: microbe, parasite or virus in culture; assay type: cell-based
Mycobacterium avium = experiment: microbe, parasite or virus in culture; assay type: cell-based
Mtb H37Rv = experiment: Minimum bactericidal concentration (MBC), Mtb H37Rv; assay type: cell-based, Mycobacterium tuberculosis; details: Mycobacterium tuberculosis, H37RV
Mtb # 8673 = experiment: microbe, parasite or virus in culture; assay type: cell-based
in vivo = assay type: in vivo, BALB/cAnNCrl mice; details: BLOQ <1.00 nmol/L
Protocol: The in-life experimental procedures were conducted in strict compliance with German and European animal welfare legislation in an AAALAC-accredited facility. Male BALB/cAnNCrl mice (Charles River Laboratories Research Models and Services, 97633 Sulzfeld, Germany) were used. Animals were 9 weeks old at dosing with a body weight of 21.6–24.3 g. Animals were delivered free of pathogens according to FELASA recommendations with a health certificate provided by the breeder. Upon receipt, the state of health and sex was checked. Animals acclimatized for at least 5 days before the commencement of the in-life phase. During acclimation, animals were group-housed in individually ventilated cages, on birch wood granulate bedding with species-specific enrichment (nesting material, mouse igloo, gnawing wood). During experimental conduct, animals were housed in conventional cages with elevated grid floors. Grid floor was used to avoid contamination with test item material excreted via urine and feces and subsequent reuptake during fur grooming. No bedding and enrichment were provided except a cage divider, which can be used as a shelter. Animals always had unlimited access to food and water and received a pelleted, total pathogen-free maintenance diet and tap drinking water, sterilized by filter.
On the day before dosing, test item(s) were suspended in kleptose (20% in WFI) under continuous stirring (3.0 mg/ml). Following 2 min vortexing and 1 h stirring, the formulation was sonicated at 60 °C for 30 min and stirred at ambient temperature overnight. Before dosing, the formulation was vortexed for 2 min followed by ultraturrax treatment for 2 min.
Male BALB/cAnNCrl mice (n = 3 per test item and administration route) received a bolus dose of the formulated test item(s) (1 mg/kg iv, 30 mg/kg po) at t = 0 h, and whole blood samples were collected subsequently (35 µl at 0.1 (iv) / 0.25 (po), 0.5, 1, 2, 4, 6 h; 600 µl at sacrifice after 24 h). Animals were euthanized by exsanguination in deep isoflurane anesthesia. Whole blood samples were immediately stored on ice at about 4 °C. Plasma was separated by centrifugation at approximately 10,000 × g for 5 m at +4 °C. Centrifugation of each blood sample was started within 10 m after collection. A single aliquot of at least 15 µL of plasma was prepared and immediately stored at −20 ± 5 °C.
Sample proteins were precipitated with ACN (1 + 12, v/v) containing internal standard, and supernatants analyzed by quantitative UPLC-MS/MS: Phenomenex Luna Omega C18, 2.1 × 50 mm, 1.6 µm, 40 °C, gradient between 10% - 90% ACN with 0.1% formic acid. LogD determination: Lipophilicity of the test items, expressed as chromLogD7.5, was assessed by measuring their chromatographic retention times on C18-material. The chromatographic retention versus logD7.5 values of a series of thirteen n-alkan-2-ones (2-butanone – 2-hexadecanone) served as lipophilicity calibration.

[3] = biological target: ClpC1-NTD substrate, M. tuberculosis ClpC1P1P2 (Mycobacterium tuberculosis, UniProt P9WPC9); experiment: biochemical; assay type: biochemical; details: Mtb
[4] = biological target: His6-tagged ClpC1-NTD substrate, M. smegmatis ClpC1P1P2 (UniProt A0R574+P9WPC9); experiment: biochemical; assay type: biochemical; details: Msm
[5] = assay type: in vitro ADME, Rat
Procedure, shortened: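 Steps: incubate compound at 1 µmol/l with liver microsomes (0.5 mg/ml) plus 1 mM NADPH in pH 7.5 Tris-HCl buffer containing MgCl2 at 37 °C; stop aliquots over time with acetonitrile; centrifuge and measure remaining compound by LC-MS/MS; fit first-order decay and convert half-life to %Qh.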

[6] = Experiment 2, three replicate columns
[7] = oral gavage 30 mg/kg, mice, Mean
[8] = oral gavage, individual animals 1-3
[9] = mean of the measurements, read-out: 1-Dmax, Mean
[10] = mean of the measurements, read-out: DC50, Mean

COc1c(N2C[C@@H]3CCCN[C@@H]3C2)c(F)cc2c(=O)c(C(=O)O)cn(C3CC3)c12 [Moxifloxacin, reference compound]
Supplementary Figure 2 dose-response value, starvation-induced non-replicating H37Rv cells ([1]; Conc. 0.0488281 µM): 96.0307 and 94.5408 and 97.6321 | Supplementary Figure 2 dose-response value, starvation-induced non-replicating H37Rv cells ([1]; Conc. 0.0976562 µM): 87.2508 and 88.414 and 86.3824 | Supplementary Figure 2 dose-response value, starvation-induced non-replicating H37Rv cells ([1]; Conc. 0.195312 µM): 85.0837 and 87.4102 and 85.2989 | Supplementary Figure 2 dose-response value, starvation-induced non-replicating H37Rv cells ([1]; Conc. 0.390625 µM): 85.4263 and 85.2112 and 85.8964 | Supplementary Figure 2 dose-response value, starvation-induced non-replicating H37Rv cells ([1]; Conc. 0.78125 µM): 82.9485 and 82.598 and 80.152 | Supplementary Figure 2 dose-response value, starvation-induced non-replicating H37Rv cells ([1]; Conc. 1.5625 µM): 77.7618 and 79.2358 and 77.6503 | Supplementary Figure 2 dose-response value, starvation-induced non-replicating H37Rv cells ([1]; Conc. 3.125 µM): 77.3794 and 79.3075 and 79.2756 | Supplementary Figure 2 dose-response value, starvation-induced non-replicating H37Rv cells ([1]; Conc. 6.25 µM): 72.6389 and 74.9414 and 71.1889 | Supplementary Figure 2 dose-response value, starvation-induced non-replicating H37Rv cells ([1]; Conc. 25 µM): 59.9471 and 62.2337 and 59.4213 | Supplementary Figure 2 dose-response value, starvation-induced non-replicating H37Rv cells ([1]; Conc. 50 µM): 60.21 and 62.4647 and 60.935 | Supplementary Figure 2 dose-response value, starvation-induced non-replicating H37Rv cells ([1]; Conc. 100 µM): 55.7882 and 57.6844 and 55.7723 | MIC (Mtb ATCC 35825; Mycobacterium tuberculosis, ATCC35825, mean, n = 2 well replicates): 0.1 µM and 0.1 µg/mL | MIC (Mtb ATCC 35825; Mycobacterium tuberculosis, ATCC35825, single well replicates): 0.06 µg/mL and 0.15 µM | MIC (Mtb ATCC 35825; single well replicates): 0.15 µM (≈ 0.0602 µg/mL) | MIC Mtb ATCC 35825 (Mtb ATCC 35825; single well replicates): 0.06 µg/mL (≈ 0.149 µM) | MIC (µg/ml) Mycobacterium intracellulare [2, 6]: 0.50 µg/mL (≈ 1.25 µM) | MIC ([2]; Experiment 2, three replicate columns, read-out: MIC (µM) Mycobacterium intracellulare): 1.25 µM | MIC ([2]; Mycobacterium intracellulare, Experiment 1, read-out: MIC Mycobacterium intracellulare): 1.25 µM and 0.5 µg/mL | MIC ([2]; Mycobacterium intracellulare, Experiment 2, three replicate columns, read-out: MIC (µM) Mycobacterium intracellulare): 1.25 µM | MIC ([2]; Mycobacterium intracellulare, Experiment 2, three replicate columns, read-out: MIC (µg/ml) Mycobacterium intracellulare): 0.5 µg/mL | MIC ([2]; Mycobacterium intracellulare, mean ± SD, read-out: MIC Mycobacterium intracellulare): 1.2 µM | MIC (µg/ml) Mycobacterium avium (Mycobacterium avium; [6]): 1 µg/mL (≈ 2.49 µM) | MIC (Mycobacterium avium; Experiment 2, three replicate columns, read-out: MIC (µM) Mycobacterium avium): 2.49 µM | MIC (Mycobacterium avium; Mycobacterium avium, Experiment 1, read-out: MIC Mycobacterium avium): 2.49 µM and 1 µg/mL | MIC (Mycobacterium avium; Mycobacterium avium, Experiment 2, three replicate columns, read-out: MIC (µM) Mycobacterium avium): 2.49 µM | MIC (Mycobacterium avium; Mycobacterium avium, Experiment 2, three replicate columns, read-out: MIC (µg/ml) Mycobacterium avium): 1 µg/mL | MIC (Mycobacterium avium; Mycobacterium avium, mean ± SD, read-out: MIC Mycobacterium avium): 2.5 µM | MBC (Mtb H37Rv; individual example, read-out: MBC Mtb H37Rv): 0.3 µM and 0.1 µg/mL | MBC (Mtb H37Rv; read-out: MBC (from Set 3) Mtb H37Rv): 0.13 µg/mL and 0.31 µM | MIC (Mtb # 8673; Mycobacterium tuberculosis, mean, n = 2 well replicates): 0.1 µM and 0.1 µg/mL | MIC (Mtb # 8673; Mycobacterium tuberculosis, single well replicates): 0.15 µM and 0.06 µg/mL | MIC (Mtb # 8673; single well replicates): 0.15 µM (≈ 0.0602 µg/mL) | MIC Mtb # 8673 (Mtb # 8673; single well replicates): 0.06 µg/mL (≈ 0.149 µM)

CO[C@H](c1ccccc1)[C@@H]1NC(=O)[C@H](C)NC(=O)[C@H](C[C@@H](C)CO)N(C)C(=O)[C@H](Cc2cn(Cc3cn(CCOCCn4cc(Cn5cc(C[C@@H]6NC(=O)[C@H](C(C)C)NC(=O)[C@H](CC(C)C)N(C)C(=O)[C@H](C(C)C)NC(=O)[C@H]([C@H](OC)c7ccccc7)NC(=O)[C@H](C)NC(=O)[C@H](C[C@@H](C)CO)N(C)C6=O)c6ccccc65)nn4)nn3)c3ccccc23)NC(=O)[C@H](C(C)C)NC(=O)[C@H](CC(C)C)N(C)C(=O)[C@H](C(C)C)NC1=O [Compound 6]
Plasma concentration 0.5 h (in vivo; [7]): BLOQ | Plasma concentration 1 h (in vivo; [7]): BLOQ | Plasma concentration 2 h (in vivo; [7]): BLOQ | Plasma concentration 4 h (in vivo; [7]): BLOQ | Plasma concentration 6 h (in vivo; [7]): BLOQ | Plasma concentration 24 h (in vivo; [7]): BLOQ | Plasma concentration […] (in vivo; [7]): BLOQ | Plasma concentration 0.5 h (in vivo; [8]): BLOQ | Plasma concentration 1 h (in vivo; [8]): BLOQ | Plasma concentration 2 h (in vivo; [8]): BLOQ | Plasma concentration 4 h (in vivo; [8]): BLOQ | Plasma concentration 6 h (in vivo; [8]): BLOQ | Plasma concentration 24 h (in vivo; [8]): BLOQ | Plasma concentration […] (in vivo; [8]): BLOQ | 1-Dmax, single measurements ([3]; Measurement 1-4): 67.3% and 57.3% and 45.9% and 46.4% | 1-Dmax (percent substrate remaining at maximal degradation) [3, 9]: 54% | DC50 [3, 10]: 5.8 µM | 1-Dmax, single measurements ([4]; Measurement 1-6): 73.6% and 67.7% and 87.3% | 1-Dmax (percent substrate remaining at maximal degradation) ([4]; Measurement 1-6, read-out: 1-Dmax, single measurements): 83.7% | 1-Dmax (percent substrate remaining at maximal degradation) [4, 9]: 78% | DC50 [4, 10]: 7.5 µM | Microsomal Stability Rat QH ([5]; Rat): <23.100% | Microsomal Stability Rat ([5]; clearance in microsomes): < 23 %Qh
